Test systems include OVCAR-4; SW-620; SN12C; HCC 2998; SR; UO-31; RPMI-8226; 786-0; SF-539; SK-MEL-5; MDA-MB-435; M14; OVCAR-3; NCI-H460; MDA-N; RXF 393; OVCAR-8; NCI/ADR-RES; MCF7; SK-OV-3.
Common to all, as to test: growth of human tumour cells (NCI), 48 h

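Briefly, cells in 96-well plates were exposed to five compound concentrations for 48 h, and endpoints were estimated by linear interpolation. GI50 = concentration required for 50% inhibition of growth.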 Activity calls are given as the source filed them. Rule as the data show it: active = GI50 up to about 1.1 µM and inactive = higher. Bounds are passed on as bounds.

Regarding `CC1(C)CCCCC1/C=C/C(CC(O)(C(F)(F)F)C(F)(F)F)=N\Nc1ccc([N+](=O)[O-])cc1[N+](=O)[O-]` (stereo not given), the GI50 in the experiment with OVCAR-4 is 1.35 µM (inactive); with SW-620, 1.86 µM (inactive); in the experiment on SN12C it was 2.13 µM (inactive); in the experiment on HCC 2998 it was 4.55 µM (inactive); with SR, 0.518 µM (active); in the experiment with UO-31, 0.706 µM (active). The GI50 is 0.33 µM (active) in the experiment with RPMI-8226; 1.92 µM (inactive) in the experiment on 786-0; 0.292 µM (active) in the experiment with SF-539; 0.395 µM (active) with SK-MEL-5; 0.49 µM (active) with MDA-MB-435; 4.33 µM (inactive) in the experiment on M14. Also, the GI50 is 0.409 µM (active) in the experiment on OVCAR-3; 0.604 µM (active) in the experiment with NCI-H460; 2.84 µM (inactive) with MDA-N; 0.406 µM (active) with RXF 393; 2.13 µM (inactive) in the experiment on OVCAR-8; 4.32 µM (inactive) in the experiment with NCI/ADR-RES. For the same molecule, the GI50 in the experiment on MCF7 is 0.573 µM (active); in the experiment on SK-OV-3, 0.979 µM (active).
Take `COc1ccc(NC(=O)CC(=O)NNC(Sc2ccccc2)c2cc(/N=N/c3ccc(Br)cc3)ccc2O)cc1` (stereo not given): the GI50 was 9.12 µM (inactive) in the experiment on OVCAR-4; > 10 µM (inactive) in the experiment with SW-620; 7.52 µM (inactive) with SN12C; > 10 µM (inactive) with HCC 2998; 8.89 µM (inactive) with SR; > 10 µM (inactive) in the experiment on UO-31. The GI50 with RPMI-8226 was > 10 µM (inactive); in the experiment on 786-0, 6.73 µM (inactive); in the experiment on SF-539, > 10 µM (inactive); in the experiment on SK-MEL-5, > 10 µM (inactive); with MDA-MB-435, > 10 µM (inactive); in the experiment on M14, > 10 µM (inactive). The GI50 was 2.21 µM (inactive) with OVCAR-3; > 10 µM (inactive) with NCI-H460; > 10 µM (inactive) in the experiment with MDA-N; > 10 µM (inactive) with RXF 393; > 10 µM (inactive) with OVCAR-8; > 10 µM (inactive) with NCI/ADR-RES. Further, the GI50 in the experiment on MCF7 and in the experiment on SK-OV-3 was > 10 µM (inactive) each time.
Regarding `CC(=O)O[C@H]1CCC2[C@@H]3CCC4NC(=O)C(C#N)C[C@]4(C)C3CC[C@@]21C` (stereo not given in full), the GI50 in the experiment with OVCAR-4, in the experiment with SW-620, in the experiment with SN12C, with HCC 2998, in the experiment on SR and in the experiment on UO-31 was > 10 µM (inactive) each time. Further, the GI50 in the experiment on RPMI-8226, in the experiment with 786-0, in the experiment with SF-539, in the experiment on SK-MEL-5, in the experiment on MDA-MB-435 and with M14 was > 10 µM (inactive) in each case. In addition, the GI50 in the experiment with OVCAR-3, with NCI-H460, in the experiment with MDA-N, in the experiment with RXF 393, in the experiment on OVCAR-8 and in the experiment on NCI/ADR-RES was > 10 µM (inactive) each time. Moreover, the GI50 in the experiment on MCF7 and in the experiment with SK-OV-3 was > 10 µM (inactive) in each case.
For `CCOC(=O)c1cccc(NC(=O)CCl)c1`, the GI50 with OVCAR-4 is 2.37 µM (inactive); in the experiment on SW-620, 3.32 µM (inactive); in the experiment on SN12C it was 2.01 µM (inactive); in the experiment with HCC 2998, 2.19 µM (inactive); with SR, 1.77 µM (inactive); in the experiment with UO-31, 4.04 µM (inactive). For the same molecule, the GI50 was 3.99 µM (inactive) with RPMI-8226; 1.9 µM (inactive) with 786-0; 2.34 µM (inactive) in the experiment on SF-539; 1.79 µM (inactive) in the experiment with SK-MEL-5; 2.38 µM (inactive) in the experiment with MDA-MB-435; 8.61 µM (inactive) in the experiment on M14. Further, the GI50 was 1.86 µM (inactive) with OVCAR-3; 1.19 µM (inactive) with NCI-H460; 3.92 µM (inactive) in the experiment with MDA-N; 3 µM (inactive) with RXF 393; 3.55 µM (inactive) with OVCAR-8; 3.61 µM (inactive) in the experiment on NCI/ADR-RES. Besides, the GI50 was 2.26 µM (inactive) in the experiment on MCF7 and 4.92 µM (inactive) with SK-OV-3.
With `Cc1ccc(O)c(C2=CC(c3cccc(Cl)c3)SC(=N)N2)c1` (stereo not given), the GI50 with OVCAR-4 is 1.77 µM (inactive); in the experiment on SW-620, 24.4 µM (inactive); in the experiment on SN12C, 16.9 µM (inactive); with HCC 2998, 16.1 µM (inactive); in the experiment on SR it was 17.3 µM (inactive); in the experiment with UO-31, 27.4 µM (inactive). Further, the GI50 was 17.7 µM (inactive) with RPMI-8226; 30.8 µM (inactive) in the experiment with 786-0; 23 µM (inactive) in the experiment with SF-539; 16.1 µM (inactive) in the experiment with SK-MEL-5; 19 µM (inactive) in the experiment with MDA-MB-435; 26 µM (inactive) with M14. The GI50 with OVCAR-3 was 29.5 µM (inactive); in the experiment on NCI-H460, 23.9 µM (inactive); with MDA-N, 18.8 µM (inactive); in the experiment with RXF 393, 23.1 µM (inactive); in the experiment with OVCAR-8, 37.8 µM (inactive); in the experiment on NCI/ADR-RES, 29.2 µM (inactive). For the same molecule, the GI50 is 29.9 µM (inactive) with MCF7 and 26.4 µM (inactive) with SK-OV-3.
As to `CCCCCC1=CC(=O)C1(Cl)Cl`, the GI50 is 15.9 µM (inactive) in the experiment on OVCAR-4; 11.9 µM (inactive) in the experiment with SW-620; 20.3 µM (inactive) in the experiment with SN12C; 14.2 µM (inactive) in the experiment with HCC 2998; 6 µM (inactive) with SR; 15.4 µM (inactive) in the experiment with UO-31. Also, the GI50 in the experiment with RPMI-8226 is 2.77 µM (inactive); in the experiment with 786-0 it was 13.9 µM (inactive); in the experiment on SF-539 it was 12.4 µM (inactive); with SK-MEL-5 it was 9.48 µM (inactive); in the experiment with MDA-MB-435 it was 11.1 µM (inactive); in the experiment on M14 it was 18.4 µM (inactive). The GI50 is 8.69 µM (inactive) in the experiment with OVCAR-3; 19.6 µM (inactive) in the experiment on NCI-H460; 10.5 µM (inactive) in the experiment with MDA-N; 12.7 µM (inactive) with RXF 393; 10.6 µM (inactive) with OVCAR-8; 17.9 µM (inactive) with NCI/ADR-RES. In addition, the GI50 was 8.11 µM (inactive) in the experiment on MCF7 and 33.9 µM (inactive) in the experiment on SK-OV-3.
In the case of `Cc1cc2c(cc1C)C(=O)C1(C2)Cc2cc3c(cc2C1=O)CCC3` (stereo not given), the GI50 in the experiment on OVCAR-4, in the experiment with SW-620, in the experiment with SN12C, in the experiment on HCC 2998, in the experiment with SR and in the experiment on UO-31 was > 100 µM (inactive) each time. Also, the GI50 is > 100 µM (inactive) in the experiment with RPMI-8226; > 100 µM (inactive) in the experiment with 786-0; 4.95 µM (inactive) with SF-539; > 100 µM (inactive) in the experiment with SK-MEL-5; > 100 µM (inactive) in the experiment on MDA-MB-435; 44.1 µM (inactive) in the experiment with M14. The GI50 with OVCAR-3, with NCI-H460, in the experiment with MDA-N, with RXF 393, with OVCAR-8 and in the experiment on NCI/ADR-RES was > 100 µM (inactive) in each case. Also, the GI50 in the experiment with MCF7 and in the experiment with SK-OV-3 was > 100 µM (inactive) each time.

The record behind these values is ChEMBL document CHEMBL1201862, “PubChem BioAssay data set” (2004).
